Measured values taken from US20250026725A1, “HYDRATE CRYSTAL OF 5-CHLORO-4-(3-CHLORO-4- METHYLPHENYL)-1H-IMIDAZOLE-2-CARBONITRILE” (ISHIHARA SANGYO KAISHA, LTD., priority 2021, published 2025).
Values after ≈ are worked out from the molar mass of the structure shown. Like-named read-outs stand apart in the source and are kept apart here.

Assays:
[1] = tested on: Staphylococcus pseudintermedius (JCM 17571); assay: Antimicrobial activity test, minimum bactericidal concentration (MBC100); assay type: cell-based; conditions: JCM17571, S. pseudintermedius, 1 minute contact, then culture at 30° C. for 72 hours
Experimental: Staphylococcus pseudintermedius that had been cultured on a Luria Broth (LB) agar medium plate (peptone, yeast extract, sodium chloride, agar, from Invitrogen) for 24 hours was suspended in physiological saline to prepare so as to have an absorbance of 0.025 at 600 nm. The compound under test dissolved in DMSO was added thereto so as to have final concentrations of 200, 100, 50, and 25 ppm, and 1 minute later, 10 μL of suspension and 10 mL of physiological saline were added to a syringe and stirred. After that, the mixture was filtered by connecting to a 37 mm quality monitor (manufactured by Pall Corporation) and washed twice with 10 ml of physiological saline. As such, membrane filters were permeated with an LB medium, culturing was performed at 30° C. for 72 hours, the presence or absence of the development of colonies was examined to determine a minimum bactericidal concentration (MBC100). A minimum bactericidal concentration (MBC100) for Staphylococcus pseudintermedius (JCM 17571) was determined in the same method as in Test Example 6 except that the hydrate crystal (Production Example 2) was used as the compound under test.

[2] = tested on: Malassezia pachydermatis (IFM56528); assay: Antifungal activity test, minimum fungicidal concentration (MFC100); assay type: cell-based; conditions: 1 minute contact, culture 32° C. for 72 hours, read-out: Minimal fungicidal concentration (MFC100)
Experimental: Malassezia pachydermatis that had been cultured on a Sabouraud medium (1% peptone, 4% […], 1.5% agar) for 5 to 7 days was suspended in physiological saline to prepare so as to have an absorbance of 0.025 at 600 nm. The compound under test dissolved in DMSO was added thereto so as to have final concentrations of 200, 100, 50, and 25 ppm. 1 minute later, 10 μL of suspension and 10 mL of physiological saline were added to a syringe and stirred, and then the mixture was filtered and washed by connecting to a 37 mm quality monitor (manufactured by Pall Corporation) and washed. As such, membrane filters were permeated with the Sabouraud medium, culturing was performed at 32° C. for 72 hours, the presence or absence of the development of colonies was examined to determine a minimum fungicidal concentration (MFC100). A minimum fungicidal concentration (MFC100) for Malassezia pachydermatis (IFM56528) was determined in the same method as in Test Example 9 except that the hydrate crystal (Production Example 2) was used as the compound under test.

[3] = Test of triboelectrification properties; assay type: physicochemical; conditions: 25° C. and 50% RH
Experimental: First, the sample was loaded into a levelled stainless steel petri dish having φ50 mm×a height of 15 mm, and then it was statically eliminated with a static eliminator (STABLO AP, manufactured by SHIMADZU CORPORATION). The surface potential of the sample was measured with a surface electrometer (SV-77A, manufactured by NIPPON STATIC CO., LTD.) that had previously been zero-point adjusted, to confirm that it was statically eliminated (within −1 to +1 kV). Next, the sample surface of the petri dish loaded with the sample was scraped back and forth 20 times with a stainless steel metal plate for 10 seconds to charge the sample surface. After that, the petri dish loaded with the charged sample was placed on a metal plate (30 cm×30 cm) connected with a ground wire. The surface potential of the sample was measured over time for 20 minutes with the above surface electrometer. The triboelectrification properties were evaluated from the initial surface potential. In addition, the retention rate was calculated from the surface potential after 20 minutes and the initial surface potential to evaluate charge attenuation properties. Note that the test was conducted in an electrostatic measurement chamber (Tabai ESPEC CORP.) set to 25° C. and 50% RH, and the surface potential measurement was conducted at a distance of 1 cm from the sample surface.

[4] = tested on: Microsporum canis (IFM63627); assay: Antifungal activity test, minimum fungicidal concentration (MFC100) on spores by treatment time; assay type: cell-based; conditions: read-out: Minimal fungicidal concentration (MFC100)
Experimental: Microsporum canis was cultured on a 1/10 Sabouraud medium at 32° C. for 168 hours to form spores. Then, 10 mL of physiological saline solution (OTSUKA NORMAL SALINE; containing the equivalent of 9 g of sodium chloride in 1000 mL) was directly added over the medium, and the surface was scraped with a disposable loop (Type 1 (1 μL) to collect a spore suspension containing mycelia. The spore suspension containing mycelia was filtered through a cell strainer ((40 μm). Spores were collected from a filtrate by centrifugation (3500 rpm, 5 minutes), and washed twice with physiological saline to prepare a spore suspension (1×10^7 cells/mL). 10 μL of the spore suspension was inoculated into 90 μL of physiological saline solution to which the compound under test dissolved in DMSO was added so as to have a predetermined concentration. Every time a predetermined time lapsed, 10 μL of a test solution containing spores was taken out. Spores were collected from the test solution thus taken out by centrifugation (3500 rpm, 5 minutes), and washed twice with physiological saline to prepare 10 μL of spore suspension. […]
A minimum fungicidal concentration (MFC100) for Microsporum canis (IMF63627) was determined in the same method as in Test Example 8 except that the hydrate crystal (Production Example 2) was used as the compound under test.

[5] = tested on: Microsporum canis (IFM63627); assay: Antifungal activity test, minimum inhibitory concentration (MIC100); assay type: cell-based; conditions: Sabouraud medium, 32° C. for 72 hours
Experimental: Microsporum canis was cultured on a 1/10 Sabouraud medium at 32° C. for 168 hours to form spores. Then, 10 mL of physiological saline solution (OTSUKA NORMAL SALINE; containing the equivalent of 9 g of sodium chloride in 1000 mL) was directly added over the medium, and the surface was scraped with a disposable loop (Type 1 (1 μL) to collect a spore suspension containing mycelia. The spore suspension containing mycelia was filtered through a cell strainer (+40 μm). Spores were collected from a filtrate by centrifugation (3500 rpm, 5 minutes), and washed twice with physiological saline to prepare a spore suspension (1×10^7 cells/mL). 10 μL of the spore suspension was inoculated into a Sabouraud medium to which the compound under test dissolved in DMSO was added so as to have a predetermined concentration. Microsporum canis was cultured at 32° C. for 72 hours, and then the presence or absence of the development of colonies was examined to determine a minimum inhibitory concentration (MIC100).
A minimum inhibitory concentration (MIC100) for Microsporum canis (IFM63627) was determined in the same method as in Test Example 7 except that the hydrate crystal (Production Example 2) was used as the compound under test.

Molecule `Cc1ccc(-c2nc(C#N)[nH]c2Cl)cc1Cl` [Anhydrous crystal, 5-chloro-4-(3-chloro-4-methylphenyl)-1H-imidazole-2-carbonitrile] has an MBC [1] of 50 µg/mL (≈ 198 µM), an MFC [2] of 50 µg/mL (≈ 198 µM) and an Electrification voltage ([3]; 0 minutes after charging, listed as Anhydrate crystal) of −5.42 kv. The Electrification voltage ([3]; 20 minutes after charging, listed as Anhydrate crystal) was −5.39 kv, the “Decrease of potential retention rate” value ([3]; at 20 minutes later) was “almost no change” and the Retention rate ([3]; surface potential after 20 minutes vs initial, listed as Anhydrate crystal) was 99.4%. For the same molecule, the MFC ([4]; treatment time 24 hours) was 50 µg/mL (≈ 198 µM), the MFC ([4]; treatment time 96 hours) was 10 µg/mL (≈ 39.7 µM) and the MIC [5] was 5 µg/mL (≈ 19.8 µM).
